From patent US9198433B2, “Substituted benzene fungicides” (E I DU PONT DE NEMOURS AND COMPANY, priority 2007, dated 2015)
Marks after values point to notes of the source that are not given here.

What was measured:
Type in all cases: in vivo
Botrytis cinerea = assay: Test F: tomato Botrytis, preventive spray on tomato seedlings, disease rating
Excerpt: (§1) The test compounds were first dissolved in acetone in an amount equal to 3% of the final volume and then suspended at the desired concentration (in ppm) in acetone and purified water (50/50 mix) containing 250 ppm of the surfactant Trem® 014 (polyhydric alcohol esters). The resulting test suspensions were then used in Tests A-L. Spraying a 200 ppm test suspension to the point of run-off on the test plants was the equivalent of an application rate of 500 g/ha. The test suspension was sprayed to the point of run-off on tomato seedlings. […] A dash (-) indicates no test results. All results are for 200 ppm except where followed by an “*”, which indicates 40 ppm or “**”, which indicates 50 ppm.

[1] = test system: Puccinia recondita f. sp. tritici; assay: Test B: wheat leaf rust, preventive spray on wheat seedlings, disease rating
Excerpt: (§2) The test compounds were first dissolved in acetone in an amount equal to 3% of the final volume and then suspended at the desired concentration (in ppm) in acetone and purified water (50/50 mix) containing 250 ppm of the surfactant Trem® 014 (polyhydric alcohol esters). The resulting test suspensions were then used in Tests A-L. Spraying a 200 ppm test suspension to the point of run-off on the test plants was the equivalent of an application rate of 500 g/ha. The test suspension was sprayed to the point of run-off on wheat seedlings. […] A dash (-) indicates no test results. All results are for 200 ppm except where followed by an “*”, which indicates 40 ppm or “**”, which indicates 50 ppm.

Alternaria solani = assay: Test H: tomato early blight, preventive spray on tomato seedlings, disease rating
Excerpt: as §1

Septoria tritici = assay: Test D: wheat leaf blotch, preventive spray on wheat seedlings, disease rating
Excerpt: The test compounds were first dissolved in acetone in an amount equal to 3% of the final volume and then suspended at the desired concentration (in ppm) in acetone and purified water (50/50 mix) containing 250 ppm of the surfactant Trem® 014 (polyhydric alcohol esters). The resulting test suspensions were then used in Tests A-L. Spraying a 200 ppm test suspension to the point of run-off on the test plants was the equivalent of an application rate of 500 g/ha. The test suspension was sprayed to the point of run-off on wheat seedlings. The following day the seedlings were inoculated with a spore suspension of Septoria tritici (the causal agent of wheat leaf blotch) and incubated in a saturated atmosphere at 24° C. for 48 h, and then moved to a growth chamber at 20° C. for 19 days, after which time disease ratings were made. […] A dash (-) indicates no test results. All results are for 200 ppm except where followed by an “*”, which indicates 40 ppm or “**”, which indicates 50 ppm.

[2] = test system: Erysiphe graminis f. sp. tritici; assay: Test A: wheat powdery mildew, preventive spray on wheat seedlings, disease rating
Excerpt: as §2

Septoria nodorum = assay: Test C: wheat glume blotch, preventive spray on wheat seedlings, disease rating
Excerpt: as §2

[3] = 200 ppm, 100 = 100% disease control, 0 = no control relative to controls
[4] = 40 ppm (*), 100 = 100% disease control, 0 = no control relative to controls

Row | SMILES | Percentage Disease Control, Test F (Botrytis cinerea; 40 ppm (*)) | Percentage Disease Control, Test B ([1]; 40 ppm (*)) | Percentage Disease Control, Test H (Alternaria solani; 40 ppm (*)) | Percentage Disease Control, Test D (Septoria tritici; 40 ppm (*)) | Percentage Disease Control, Test A ([2]; 40 ppm (*)) | Percentage Disease Control, Test C (Septoria nodorum; 40 ppm (*)) | Percentage Disease Control, Test F (Botrytis cinerea; 200 ppm) | Percentage Disease Control, Test H (Alternaria solani; 200 ppm) | also measured
1 | COC(=O)NCc1cc(-c2ccn(-c3cc(C(F)(F)F)ccn3)n2)ccc1Cl [Cmpd 86] | 0* % | 100* % | 9* % | 98* % | 99* % | 100* % |  |  | 
2 | COC(=O)NCc1cc(-c2ccnn2-c2ccccc2)ccc1Cl [Cmpd 140] |  |  |  |  |  |  |  |  | Percentage Disease Control, Test F (Botrytis cinerea; [3]): 0%; Percentage Disease Control, Test B [1, 3]: 32%; Percentage Disease Control, Test H (Alternaria solani; [3]): 0%; Percentage Disease Control, Test D (Septoria tritici; [3]): 96%; Percentage Disease Control, Test A [2, 3]: 0%; Percentage Disease Control, Test C (Septoria nodorum; [3]): 0%
3 | COC(=O)NCc1cc(-c2ncn(-c3ccc(Br)cc3)n2)ccc1Cl [Cmpd 97] |  | 100* % |  | 100* % | 98* % | 100* % | 0% | 85% | 
4 | COC(=O)NCc1cc(-c2ccn(Cc3ccc(C(F)(F)F)cc3)n2)ccc1Cl [Cmpd 63] | 0* % | 100* % | 98* % | 100* % | 97* % | 99* % |  |  | 
5 | COC(=O)NCc1cc(-c2ccn(-c3ccc(Br)cc3)n2)ccc1Cl [Cmpd 111] |  | 100* % | 90* % | 100* % | 99* % | 100* % | 95% |  | 
6 | COC(=O)NCc1cc(-n2ccc(-c3cccc(C(F)(F)F)c3)n2)ccc1Cl [Cmpd 119] |  | 100* % |  | 100* % | 100* % | 100* % | 51% | 57% | 
7 | COC(=O)NCc1cc(-n2ccc(-c3cccc(Cl)c3)n2)ccc1Cl [Cmpd 123] |  | 99* % |  | 99* % | 98* % | 100* % | 63% | 87% | 
8 | COC(=O)NCc1cc(-c2cnn(Cc3ccccc3Cl)c2)ccc1Cl [Cmpd 129] |  |  |  |  |  |  |  |  | Percentage Disease Control, Test F (Botrytis cinerea; [3]): 0%; Percentage Disease Control, Test B [1, 3]: 98%; Percentage Disease Control, Test H (Alternaria solani; [3]): 0%; Percentage Disease Control, Test D (Septoria tritici; [4]): 92* %; Percentage Disease Control, Test A [2, 3]: 94%; Percentage Disease Control, Test C (Septoria nodorum; [3]): 90%
9 | COC(=O)NCc1cc(-c2ccn(-c3ccccc3Cl)n2)ccc1Cl [Cmpd 52] |  | 100* % |  | 100* % | 100* % | 100* % | 99% | 92% | 
10 | COC(=O)NCc1cc(-c2ccn(-c3cccc(C(F)(F)F)n3)n2)ccc1Cl [Cmpd 69] |  | 92* % |  | 98* % | 97* % | 98* % | 0% | 32% | 
11 | COC(=O)NCc1cc(-c2ccn(Cc3ccccc3C(F)(F)F)n2)ccc1Cl [Cmpd 62] | 0* % | 99* % | 0* % | 100* % | 99* % | 100* % |  |  | 
12 | COC(=O)NCc1cc(-c2ccn(Cc3cccc([N+](=O)[O-])c3)n2)ccc1Cl [Cmpd 73] | 95* % | 98* % | 14* % | 98* % | 74* % | 96* % |  |  | 
13 | COC(=O)NCc1cc(-c2ccn(Cc3cccc(Cl)c3)n2)ccc1Cl [Cmpd 60] | 0* % | 99* % | 24* % | 99* % | 98* % | 99* % |  |  | 
14 | COC(=O)NCc1cc(-c2cn(Cc3ccc(C)cc3)nn2)ccc1Cl [Cmpd 149] |  |  |  |  |  |  |  |  | Percentage Disease Control, Test F (Botrytis cinerea; [3]): 0%; Percentage Disease Control, Test B [1, 3]: 99%; Percentage Disease Control, Test H (Alternaria solani; [3]): 0%; Percentage Disease Control, Test D (Septoria tritici; [3]): 99%; Percentage Disease Control, Test A [2, 3]: 0%; Percentage Disease Control, Test C (Septoria nodorum; [3]): 100%
15 | COC(=O)NCc1cc(-c2cc(C(F)(F)F)[nH]n2)ccc1Cl [Cmpd 100] |  |  |  |  |  |  | 0% | 0% | Percentage Disease Control, Test B ([1]; 200 ppm): 0%; Percentage Disease Control, Test D (Septoria tritici; 200 ppm): 40%; Percentage Disease Control, Test A ([2]; 200 ppm): 0%; Percentage Disease Control, Test C (Septoria nodorum; 200 ppm): 0%
16 | COC(=O)NCc1cc(-c2ccn(-c3cc(C(F)(F)F)cc(C(F)(F)F)c3)n2)ccc1Cl [Cmpd 78] | 33* % | 85* % | 0* % | 90* % | 100* % | 0* % |  |  | 
17 | COC(=O)NCc1cc(-c2ccnc(OCc3ccccc3)n2)ccc1Cl [Cmpd 139] |  |  |  |  |  |  |  |  | Percentage Disease Control, Test F (Botrytis cinerea; [3]): 0%; Percentage Disease Control, Test B [1, 4]: 100* %; Percentage Disease Control, Test H (Alternaria solani; [3]): 26%; Percentage Disease Control, Test D (Septoria tritici; [4]): 92* %; Percentage Disease Control, Test A [2, 3]: 87%; Percentage Disease Control, Test C (Septoria nodorum; [4]): 99* %
18 | COC(=O)NCc1cc(-c2cc(C(F)(F)F)nn2C)ccc1Cl [Cmpd 141] |  |  |  |  |  |  |  |  | Percentage Disease Control, Test F (Botrytis cinerea; [3]): 0%; Percentage Disease Control, Test B [1, 3]: 89%; Percentage Disease Control, Test H (Alternaria solani; [3]): 0%; Percentage Disease Control, Test D (Septoria tritici; [3]): 98%; Percentage Disease Control, Test A [2, 3]: 96%; Percentage Disease Control, Test C (Septoria nodorum; [3]): 82%
19 | COC(=O)NCc1cc(-c2ccn(-c3nc(C)ns3)n2)ccc1Cl [Cmpd 105] |  | 100* % | 90* % | 99* % |  | 100* % | 0% |  | Percentage Disease Control, Test A ([2]; 200 ppm): 51%
20 | COC(=O)NCc1cc(-c2ccn(-c3ccc(Cl)cc3)n2)ccc1Cl [Cmpd 74] | 51* % | 100* % | 99* % | 100* % | 100* % | 100* % |  |  | 
21 | COC(=O)NCc1cc(-c2ccn(-c3nc(C4CC4)ns3)n2)ccc1Cl [Cmpd 95] | 90* % | 100* % |  | 100* % | 100* % | 100* % |  | 25% | 
22 | COC(=O)NCc1cc(-c2cn(-c3ccc(Cl)cc3)nn2)ccc1Cl [Cmpd 148] |  |  |  |  |  |  |  |  | Percentage Disease Control, Test F (Botrytis cinerea; [3]): 46%; Percentage Disease Control, Test B [1, 4]: 90* %; Percentage Disease Control, Test H (Alternaria solani; [3]): 0%; Percentage Disease Control, Test D (Septoria tritici; [4]): 98* %; Percentage Disease Control, Test A [2, 3]: 85%; Percentage Disease Control, Test C (Septoria nodorum; [3]): 90%
23 | COC(=O)NCc1cc(-c2ccn(Cc3cccc(C#N)c3)n2)ccc1Cl [Cmpd 75] | 20* % | 93* % | 61* % | 91* % | 72* % | 40* % |  |  | 
24 | COC(=O)NCc1cc(-n2cnc(-c3cccc(C(F)(F)F)c3)n2)ccc1Cl [Cmpd 120] |  |  |  | 94* % | 98* % |  | 0% | 0% | Percentage Disease Control, Test B ([1]; 200 ppm): 79%; Percentage Disease Control, Test C (Septoria nodorum; 200 ppm): 0%
25 | COC(=O)NCc1cc(-c2ccn(-c3ccccc3C(F)(F)F)n2)ccc1Cl [Cmpd 51] | 0* % | 99* % | 60* % | 100* % | 97* % | 98* % |  |  | 
